From patent publication US20130310374A1, “Substituted Imidazoquinoline Derivatives” (PIRAMAL ENTERPRISES LIMITED`, priority 2010, published 2013)

Assays:
A2780 = assay: Cytotoxicity propidium iodide assay, A2780; format: cell-based; conditions: for inhibition at 1 µM / IC50 / inhibition at 10 µM: Homo sapiens; for inhibition at 1 µM: read-out: % Inhibition at 1 μM, C1a; for IC50: A2780 (ovarian), 48 hours treatment, read-out: IC50 Values in μM, C1a; for inhibition at 10 µM: A2780, 10 μM (stated in cell), read-out: % Inhibition at 10 μM, C1a
Procedure: (§1) The assay was designed as in the reference, Anticancer Drugs, 2002, 13, 1-8, the disclosure of which is incorporated herein by reference for the teaching of the assay.
(§2) Cells from cell lines (ATCC) as mentioned in the table given below were seeded at a density of 3000 cells/well in a white opaque 96-well plate. Following incubation at 37° C./5% CO2 for a period of 18-24 hours, the cells were treated with various concentrations (stock solution was prepared in DMSO and subsequent dilutions were made in media as per ATCC guidelines) of the compounds of the present invention for a period of 48 hours. At the end of treatment, the culture medium was discarded, the cells were washed with 1×PBS and 200 μL of […] propidium iodide was added to each well. The plates were frozen at […] overnight. For analysis, the plates were warmed to RT, allowed to thaw and were read in PoleStar fluorimeter with the fluorescence setting. The percentage of viable cells in the non-treated set of wells was considered to be 100 and the percentage viability following treatment was calculated accordingly. IC50 values were calculated from graphs plotted using these percentages. IC50 values for certain compounds of present invention are depicted in Table 1 and % Inhibition of certain compounds of present invention are depicted in Table 2.

PC3 = assay: Cytotoxicity propidium iodide assay, PC3; format: cell-based, human; conditions: for inhibition at 1 µM / IC50 / inhibition at 10 µM: Homo sapiens, PC-3; for inhibition at 1 µM: read-out: % Inhibition at 1 μM, C2a; for IC50: PC3 (prostate), 48 hours treatment, read-out: IC50 Values in μM, C2a; for inhibition at 10 µM: PC3, 10 μM (stated in cell), read-out: % Inhibition at 10 μM, C2a
Procedure: as §1, §2

Compound | inhibition at 1 µM (A2780; A2780, 1 μM, 48 hours) [%] | inhibition at 1 µM (PC3; PC3, 1 μM, 48 hours) [%] | also measured
N#CCn1c(=O)n(-c2ccc(C#N)nc2)c2c3cc(-c4cccnc4)ccc3ncc21 [Example 42, 5-(3-(Cyanomethyl)-2-oxo-8-(pyridin-3-yl)-2,3-dihydro-1H-imidazo[4,5-c]quinolin-1-yl)picolinonitrile] | 60 to 80 | 60 to 80 | 
Cn1c(=O)n(-c2ccc(C#N)nc2)c2c3cc(-c4cccnc4F)ccc3ncc21 [Example 46, 5-(8-(2-Fluoropyridin-3-yl)-3-methyl-2-oxo-2,3-dihydro-1H-imidazo[4,5-c]quinolin-1-yl)picolinonitrile] | 34 | 27 | 
COc1ccc(-n2c(=O)n(CC#N)c3cnc4ccc(-c5cccnc5)cc4c32)cn1 [Example 21, 2-(1-(6-Methoxypyridin-3-yl)-2-oxo-8-(pyridin-3-yl)-1H-imidazo[4,5-c]quinolin-3(2H)-yl)acetonitrile] | 38 | 27 | 
COc1ccc(-n2c(=O)n(C)c3cnc4ccc(-c5ccc(N(C)C)nc5)cc4c32)cn1 [Example 25, 8-(6-(Dimethylamino)pyridin-3-yl)-1-(6-methoxypyridin-3-yl)-3-methyl-1H-imidazo[4,5-c] quinolin-2(3H)-one] | 83.4 | 69 | 
Cn1c(=O)n(-c2ccc(Cl)nc2)c2c3cc(-c4cccnc4)ccc3ncc21 [Example 60, 1-(6-Chloropyridin-3-yl)-3-methyl-8-(pyridin-3-yl)-1H-imidazo[4,5-c]quinolin-2(3H)-one] |  |  | IC50 (A2780): 0.68 µM; IC50 (PC3): 0.85 µM
COc1ccc(-n2c(=O)n(CC#N)c3cnc4ccc(-c5ccc(C(F)(F)F)nc5)cc4c32)c(C)n1 [Example 37, 2-(1-(6-Methoxy-2-methylpyridin-3-yl)-2-oxo-8-(6-(trifluoromethyl)pyridin-3-yl)-1H-imidazo[4,5-c]quinolin-3(2H)-yl)acetonitrile] | 70 | 49.5 | 
Cn1c(=O)n(-c2ccc(C(F)(F)F)nc2)c2c3cc(-c4cccnc4)ccc3ncc21 [Example 53, 3-Methyl-8-(pyridin-3-yl)-1-(6-(trifluoromethyl)pyridin-3-yl)-1H-imidazo[4,5-c]quinolin-2(3H)-one] |  |  | IC50 (A2780): 0.55 µM; IC50 (PC3): 0.75 µM
CC(C#N)n1c(=O)n(-c2ccc(C#N)nc2)c2c3cc(-c4cnc5ccccc5c4)ccc3ncc21 (centres unmarked) [Example 52, 5-(3-(1-Cyanoethyl)-2-oxo-8-(quinolin-3-yl)-2,3-dihydro-1H-imidazo[4,5-c]quinolin-1-yl)picolinonitrile] | 36 | 12 | 
COc1ccc(-c2ccc3ncc4c(c3c2)n(-c2ccc(C#N)nc2)c(=O)n4C)cn1 [Example 48, 5-(8-(6-Methoxypyridin-3-yl)-3-methyl-2-oxo-2,3-dihydro-1H-imidazo[4,5-c]quinolin-1-yl)picolinonitrile] |  |  | inhibition at 10 µM (A2780; 48 hours): 40 to 60%; inhibition at 10 µM (PC3; 48 hours): 40 to 60%
CC(C#N)n1c(=O)n(-c2ccc(C#N)nc2)c2c3cc(-c4cccnc4)ccc3ncc21 (centres unmarked) [Example 43, 5-(3-(1-Cyanoethyl)-2-oxo-8-(pyridin-3-yl)-2,3-dihydro-1H-imidazo[4,5-c]quinolin-1-yl)picolinonitrile] | 8 | 13 | 
Cn1c(=O)n(-c2ccc(C(C)(C)C#N)nc2)c2c3cc(-c4cncc(C(F)(F)F)c4)ccc3ncc21 [Example 4, 2-Methyl-2-(5-(3-methyl-2-oxo-8-(5-(trifluoromethyl)pyridin-3-yl)-2,3-dihydro-1H-imidazo[4,5-c]quinolin-1-yl)pyridin-2-yl)propanenitrile] | 89.2 | 72.6 | 
Cn1c(=O)n(-c2ccc(C(F)(F)F)nc2)c2c3cc(-c4ccc(C(F)(F)F)nc4)ccc3ncc21 [Example 56, 3-Methyl-1,8-bis(6-(trifluoromethyl)pyridin-3-yl)-1H-imidazo [4,5-c]quinolin-2(3H)-one] | 57 | 32 | 
N#CCn1c(=O)n(-c2ccc(C#N)nc2)c2c3cc(-c4cnc5ccccc5c4)ccc3ncc21 [Example 51, 5-(3-(Cyanomethyl)-2-oxo-8-(quinolin-3-yl)-2,3-dihydro-1H-imidazo[4,5-c]quinolin-1-yl)picolinonitrile] | 73 | 41 | 
COc1ccc(-n2c(=O)n(CC#N)c3cnc4ccc(-c5cnc6ccccc6c5)cc4c32)cn1 [Example 24, 2-(1-(6-Methoxypyridin-3-yl)-2-oxo-8-(quinolin-3-yl)-1H-imidazo[4,5-c]quinolin-3(2H)-yl)acetonitrile] | 66 | 39 | 
COc1ccc(-n2c(=O)n(C)c3cnc4ccc(-c5cncc(C(F)(F)F)c5)cc4c32)cn1 [Example 22, 1-(6-Methoxypyridin-3-yl)-3-methyl-8-(5-(trifluoromethyl)pyridin-3-yl)-1H-imidazo[4,5-c] quinolin-2(3H)-one] | 83.1 | 67.8 | 
Cn1c(=O)n(-c2ccc(C(C)(C)C#N)nc2)c2c3cc(-c4cncc5ccccc45)ccc3ncc21 [Example 6, 2-(5-(8-(Isoquinolin-4-yl)-3-methyl-2-oxo-2,3-dihydro-1H-imidazo[4,5-c]quinolin-1-yl)pyridin-2-yl)-2-methylpropanenitrile] | 85.3 | 69.5 | 
Cn1c(=O)n(-c2ccc(C#N)nc2)c2c3cc(-c4cnc(N)c(C(F)(F)F)c4)ccc3ncc21 [Example 45, 5-(8-(6-Amino-5-(trifluoromethyl)pyridin-3-yl)-3-methyl-2-oxo-2,3-dihydro-1H-imidazo[4,5-c]quinolin-1-yl)picolinonitrile] | 52 | 37 | 
COc1ccc(-n2c(=O)n(C)c3cnc4ccc(-c5cncc(C(F)(F)F)c5)cc4c32)c(C)n1 [Example 39, 1-(6-Methoxy-2-methylpyridin-3-yl)-3-methyl-8-(5-(trifluoromethyl)pyridin-3-yl)-1H-imidazo[4,5-c]quinolin-2(3H)-one] | 83.4 | 68.8 | 
COc1ccc(-n2c(=O)n(C)c3cnc4ccc(-c5cnc(N)c(C(F)(F)F)c5)cc4c32)c(C)n1 [Example 38, 8-(6-Amino-5-(trifluoromethyl)pyridin-3-yl)-1-(6-methoxy-2-methylpyridin-3-yl)-3-methyl-1H-imidazo[4,5-c]quinolin-2(3H)-one] |  |  | IC50 (A2780): < 0.005 µM; IC50 (PC3): 0.0078 µM
CC(C)(C#N)c1ccc(-n2c(=O)n(CC#N)c3cnc4ccc(-c5cccnc5)cc4c32)cn1 [Example 14, 2-(5-(3-(Cyanomethyl)-2-oxo-8-(pyridin-3-yl)-2,3-dihydro-1H-imidazo[4,5-c]quinolin-1-yl)pyridin-2-yl)-2-methylpropanenitrile] |  |  | IC50 (A2780): 0.4 µM; IC50 (PC3): 0.42 µM
COc1ccc(-n2c(=O)n(C)c3cnc4ccc(-c5cnc6ccccc6c5)cc4c32)c(C)n1 [Example 41, 1-(6-Methoxy-2-methylpyridin-3-yl)-3-methyl-8-(quinolin-3-yl)-1H-imidazo[4,5-c]quinolin-2(3H)-one] | 80 | 68 | 
Cn1c(=O)n(CCN2CCOCC2)c2c3cc(-c4cnc(N)c(C(F)(F)F)c4)ccc3ncc21 [Example 69, 8-(6-Amino-5-(trifluoromethyl)pyridin-3-yl)-3-methyl-1-(2-morpholinoethyl)-1H-imidazo[4,5-c]quinolin-2(3H)-one] |  |  | IC50 (A2780): 0.022 µM; IC50 (PC3): 0.07 µM
CCOc1ccc(-n2c(=O)n(C)c3cnc4ccc(-c5cnc(N)c(C(F)(F)F)c5)cc4c32)cn1 [Example 30, 8-(6-Amino-5-(trifluoromethyl)pyridin-3-yl)-1-(6-ethoxypyridin-3-yl)-3-methyl-1H-imidazo[4,5-c]quinolin-2(3H)-one] | 94 | 71 | 
Cn1c(=O)n(-c2ccc(C#N)nc2)c2c3cc(-c4ccc(F)nc4)ccc3ncc21 [Example 47, 5-(8-(6-Fluoropyridin-3-yl)-3-methyl-2-oxo-2,3-dihydro-1H-imidazo[4,5-c]quinolin-1-yl)picolinonitrile] |  |  | inhibition at 10 µM (A2780; 48 hours): 40 to 60%; inhibition at 10 µM (PC3; 48 hours): 40 to 60%
6-Chloro-5-(3-methyl-2-oxo-8-(quinolin-3-yl)-2,3-dihydro-1H-imidazo[4,5-c]quinolin-1-yl)picolinonitrile [Example 58] |  |  | % Inhibition at 1 μM, C1a (A2780; A2780, 1 μM, 48 hours): 91%; % Inhibition at 1 μM, C2a (PC3; PC3, 1 μM, 48 hours): 60%
